Measured values as given in US20170112741A1, “AGENT FOR AMELIORATING SKIN SYMPTOM, HAIR GROWTH AGENT OR SLIMMING AGENT” (GOLDCREST MEDICINE INSTITUTE CO., LTD., priority 2014, published 2017).

How the values were obtained:
Type in all cases: in vivo, human
[1] = system: moles; assay: Effect of oral administration on 4 moles on left ankle and 4 small moles around them; details: for Color and shape of mole No. 4, left ankle: Jun. 20, 2013: brown circular
From the text: On the part slightly above the left ankle, 4 black moles were observed. From a direction of the little toe of the left foot, there were 3 black circular moles having a similar diameter ranging from about 3.7 mm to about 4 mm, present almost in one line with an interval of 2.4 cm and 2.6 cm. […]
At a position 6 mm above the second mole, there was a red oval mole of 1 mm×1.7 mm. […]

[2] = system: seborrheic keratosis; assay: Treatment of seborrheic keratosis generated from senile plaque by oral cabergoline; details: patient A
From the text: Investigation was made for the treatment of seborrheic keratosis generated from senile plaque. On the back side of the wrist of the right hand of patient A, there was seborrheic keratosis with width of 15 mm×length of 10 mm, which had remained as a problem for 13 years. In summer, elevation of the skin of about 4 mm with blackish brown color occurred.
Furthermore, 2 years ago, seborrheic keratosis with width of 13 mm×length of 9 mm was caused from senile plaque on the back of the right hand, and elevation of the skin of about 2 mm with dark brown color was recognized. […] Thus, it is recognized that the seborrheic keratosis with a short clinical history is more responsive to the treatment.

[3] = system: head hair / bald area; assay: Hair growth on the head of patient A, photographs before and after oral cabergoline
From the text: According to the photograph (1) of patient A (FIG. 1) taken at a restaurant during travel in Shonai region of Yamagata Prefecture on Sep. 16, 2010, the head of patient A from the upper forehead to the crown was quite bald. Only a small amount of hair was left right above the forehead. Patient A was […] at the time of taking the photo. Since the cabergoline administration was started on Jun. 20, 2013, patient A was […] at that time, which was 2 years and 9 months after taking the photograph (1), and thus, aging further progressed so that the hair became thinner and the hair loss progressed.
The image of the occipital region of patient A taken from the back side on Sep. 16, 2010, is shown in the photograph (2) (FIG. 2).
In the period from Jun. 20, 2013 (Thursday) to Jul. 15, 2013 (Monday), one tablet of 0.25 mg cabergoline was orally administered twice per week, on Monday and Thursday, and thus a total of 2 mg of cabergoline was administered over one month. From July 18, the administration of cabergoline was changed from two tablets per week to one tablet per week. The total dose of cabergoline administered from Jul. 18, 2013 to Jan. 20, 2014 was about 6 mg, and thus, the total amount of cabergoline administered after the start of administration was calculated to be 8 mg.
Images of the frontal region and the occipital region of patient A taken on Feb. 27, 2014 are shown as photograph (3) (FIG. 3) and photograph (4) (FIG. 4), respectively.

[4] = Slimming effect of cabergoline 0.25 mg/week in patient A
Experimental: Due to an illness, patient A had to undergo the cabergoline treatment from the end of June of year 2013, and for this reason, attempted to lose weight again. Since it was expected that the body weight would be gained back, the target value was set at 56.5 kg, and a long-term plan without any exercise or restricted diet was adopted. However, regular meals were taken and only the overeating was strictly avoided.
Meanwhile, since cabergoline was administered at 0.25 mg/week for 3 months of the measurement period, the total dose of cabergoline was calculated to be 3 mg. […] In this regard, it is considered that no side effect would appear with administration of such a small amount.

[5] = Jan. 17, 2014 (after 210 days), listed as novel skin treatment agent
[6] = Jan. 17, 2014 (after 210 days), size 1.8 × 2.2 wrapped over two grid lines, Jun. 20, 2013: 3.9 mm
[7] = Mar. 20, 2014 (after 272 days), vague border, Jun. 20, 2013: black circular
[8] = Feb. 27, 2014 vs Sep. 16, 2010, oral cabergoline since Jun. 20, 2013
[9] = patient A, 0.25 mg/week, November 14
[10] = patient A, 0.25 mg/week, November 28
[11] = patient A, 0.25 mg/week, October 3
[12] = patient A, 0.25 mg/week, October 17
[13] = patient A, 0.25 mg/week, October 31
[14] = patient A, 0.25 mg/week, Sep. 5, 2013 (start of measurement period)
[15] = patient A, 0.25 mg/week, September 19

In the case of `C=CCN1C[C@H](C(=O)N(CCCN(C)C)C(=O)NCC)C[C@@H]2c3cccc4[nH]cc(c34)C[C@H]21` [cabergoline], the “Color and shape of mole No. 1, left ankle” value ([1]; Dec. 4, 2013 (after 166 days), Jun. 20, 2013: black circular) was “a red circular mole”, the “Diameter of mole No. 1, left ankle” value ([1]; Dec. 4, 2013 (after 166 days), Jun. 20, 2013: black circular, diameter 3.7 mm) was 1.2 mm. The color and the “Color and shape of mole No. 4, left ankle” value ([1]; Dec. 4, 2013 (after 166 days)) was “yellow-brown circular mole”. The “Diameter of mole No. 4, left ankle” value ([1]; Dec. 4, 2013 (after 166 days), Jun. 20, 2013: brown circular mole of 2.0 × 1.8 mm) was “with a diameter of 1.0 mm,”, the “Diameter of the 2 red moles among the small moles above mole No. 3” value ([1]; Dec. 4, 2013 (after 166 days), Jun. 20, 2013: diameter 1.5 mm) was “diameter of 0.5 mm” and the “Color and shape of mole No. 3, left ankle” value ([1]; Dec. 4, 2013 (after 166 days), cell continues: brown rectangular mole, vague border, Jun. 20, 2013: black circular) was “The mole shrunk to a blackish”. For the same molecule, the “Color of mole No. 2, left ankle” value ([1]; Dec. 4, 2013 (after 166 days), oval, vague border, Jun. 20, 2013: black circular) was “faded to light brown”, the “State of the 3 small moles above mole No. 3” value ([1]; Jan. 17, 2014 (after 210 days)) was “completely disappeared” and the “State of the small mole above mole No. 2” value ([1]; Jan. 17, 2014 (after 210 days)) was “completely disappeared”. The “Diameter of mole No. 1, left ankle” value ([1]; Jan. 17, 2014 (after 210 days), Jun. 20, 2013: 3.7 mm) was 1.0 mm, the “Color and shape of mole No. 1, left ankle” value ([1]; Jan. 17, 2014 (after 210 days), Jun. 20, 2013: black circular) was “Red circular mole” and the “Color and shape of mole No. 4, left ankle” value ([1]; Jan. 17, 2014 (after 210 days)) was “Light brown line-shaped”. For the same molecule, the “State of the 3 small moles above mole No. 3” value [1, 5] was “The upper 3 moles disappeared”, the “State of the small mole above mole No. 2” value [1, 5] was “The upper mole disappeared” and the “Length of mole No. 2, left ankle” value [1, 6] was 2.2 mm with a vague border. The “Width of mole No. 2, left ankle” value [1, 6] was 1.8 mm, the “Color and shape of mole No. 2, left ankle” value ([1]; Jan. 17, 2014 (after 210 days), vague border, Jun. 20, 2013: black circular) was “Light brown oval mole” and the “Diameter of mole No. 1, left ankle” value ([1]; Mar. 20, 2014 (after 272 days), Jun. 20, 2013: 3.7 mm) was 1 mm. The “Diameter of mole No. 1, left ankle” value ([1]; Mar. 20, 2014 (after 272 days), Jun. 20, 2013: 3.7 mm, listed as novel skin treatment agent) was “diameter of 1.0 mm”, the “Diameter of mole No. 2, left ankle” value ([1]; Mar. 20, 2014 (after 272 days), Jun. 20, 2013: 3.9 mm) was 2 mm and the “Diameter of mole No. 2, left ankle” value ([1]; Mar. 20, 2014 (after 272 days), Jun. 20, 2013: 3.9 mm, listed as novel skin treatment agent) was “diameter of 2.0 mm with a vague”. For the same molecule, the “Color and shape of mole No. 1, left ankle” value ([1]; Mar. 20, 2014 (after 272 days), Jun. 20, 2013: black circular) was “red circular shape”, the “Color and shape of mole No. 1, left ankle” value ([1]; Mar. 20, 2014 (after 272 days), Jun. 20, 2013: black circular, listed as novel skin treatment agent) was “Light red circular” and the “Color and shape of mole No. 4, left ankle” value ([1]; Mar. 20, 2014 (after 272 days), cell continues: shaped mole) was “only a trace of a faint line shape was observed”. The “Color and shape of mole No. 4, left ankle” value ([1]; Mar. 20, 2014 (after 272 days), cell continues: shaped mole, listed as novel skin treatment agent) was “Very light brown line-”, the “Color and shape of mole No. 2, left ankle” value [1, 7] was “pale light brown circular mole” and the “Color and shape of mole No. 3, left ankle” value [1, 7] was “blackish brown color and an almost rectangular shape”. For the same molecule, the “Color and shape of mole No. 3, left ankle” value ([1]; Mar. 20, 2014 (after 272 days), vague border, Jun. 20, 2013: black circular, listed as novel skin treatment agent) was “Dark brown rectangular mole of”, the “Color of seborrheic keratosis on back side of right wrist” value ([2]; 13 years history, oral cabergoline over the last year) was “faded from blackish brown to brown” and the “Color of seborrheic keratosis on the back of the right hand” value ([2]; as of March 22, initially dark brown) was “faded to pale yellow brown”. The “Elevation of the skin, seborrheic keratosis on back side of right wrist” value ([2]; lesion width 15 mm×length 10 mm, 13 years history, elevation about 4 mm, oral cabergoline over the last year) was “became flattened”, the “Bald area, frontal region of the head (photograph (3))” value [3, 8] was “clearly reduced” and the “Bald area, region from the crown to the occipital region (photograph (4) vs (2))” value [3, 8] was “the bald area was reduced”. The “Hairs in the region from the crown to the occipital region” value [3, 8] was “hairs were increased”, the “Hair in the frontal region of the head (photograph (3))” value ([3]; Feb. 27, 2014 vs Sep. 16, 2010, oral cabergoline since Jun. 20, 2013, about 8 mg in total by Jan. 20, 2014) was “short black hairs were found in the previously bald region” and the Hungry feeling ([4]; patient A during weight loss under cabergoline) was “no hungry feeling”. For the same molecule, the Waist size ([4]; patient A under cabergoline, reduced from 91 cm at a maximum) was 83 cm, the Body weight course ([4]; patient A under cabergoline, target value 56.5 kg, no exercise or restricted diet) was “steadily reduced to the target value” and the “Obesity BMI” value ([4]; patient A, 0.25 mg/week, December 12) was 24.0. For the same molecule, the “Body weight” value ([4]; patient A, 0.25 mg/week, December 12 (15 weeks)) was 56.1 kg, the “Weight loss” value ([4]; patient A, 0.25 mg/week, December 12, since previous measurement) was 0.7 kg and the “Total weight loss (%)” value ([4]; patient A, 0.25 mg/week, December 12, vs Sep. 5, 2013) was −10.0%. The “Body weight” value [4, 9] was 57.5 kg, the “Obesity BMI” value [4, 9] was 24.6 and the “Weight loss” value ([4]; patient A, 0.25 mg/week, November 14, since previous measurement) was 0.8 kg. For the same molecule, the “Total weight loss (%)” value ([4]; patient A, 0.25 mg/week, November 14, vs Sep. 5, 2013) was −7.7%, the “Body weight” value [4, 10] was 56.8 kg and the “Obesity BMI” value [4, 10] was 24.3. The “Weight loss” value ([4]; patient A, 0.25 mg/week, November 28, since previous measurement) was 0.7 kg, the “Total weight loss (%)” value ([4]; patient A, 0.25 mg/week, November 28, vs Sep. 5, 2013) was −8.9% and the “Body weight” value [4, 11] was 60.1 kg. The “Obesity BMI” value [4, 11] was 25.7, the “Weight loss” value ([4]; patient A, 0.25 mg/week, October 3, since previous measurement) was 1.2 kg and the “Total weight loss (%)” value ([4]; patient A, 0.25 mg/week, October 3, vs Sep. 5, 2013) was −3.5%. For the same molecule, the “Body weight” value [4, 12] was 59.1 kg, the “Obesity BMI” value [4, 12] was 25.2 and the “Weight loss” value ([4]; patient A, 0.25 mg/week, October 17, since previous measurement) was 1.0 kg. The “Total weight loss (%)” value ([4]; patient A, 0.25 mg/week, October 17, vs Sep. 5, 2013) was −5.1%, the “Body weight” value [4, 13] was 58.3 kg and the “Obesity BMI” value [4, 13] was 24.9. For the same molecule, the “Weight loss” value ([4]; patient A, 0.25 mg/week, October 31, since previous measurement) was 0.8 kg, the “Total weight loss (%)” value ([4]; patient A, 0.25 mg/week, October 31, vs Sep. 5, 2013) was −6.4% and the “Body weight” value [4, 14] was 62.3 kg. The “Obesity BMI” value [4, 14] was 26.6, the “Body weight” value [4, 15] was 61.3 kg and the “Obesity BMI” value [4, 15] was 26.2. For the same molecule, the “Weight loss” value ([4]; patient A, 0.25 mg/week, September 19, since previous measurement) was 1.0 kg, the “Total weight loss (%)” value ([4]; patient A, 0.25 mg/week, September 19, vs Sep. 5, 2013) was −1.6% and the “Time after which BMI was decreased to a normal level” value ([4]; patient A, oral administration, normal BMI 21.5 to 24.9) was 8 weeks. The “Body weight” value ([4]; patient A, Mar. 14, 2015) was 54.2 kg, the “Obesity BMI” value ([4]; patient A, Mar. 14, 2015) was 23.2 and the “Weight loss” value ([4]; patient A, Mar. 14, 2015, since previous measurement) was 1.9 kg. The “Total weight loss (%)” value ([4]; patient A, Mar. 14, 2015, vs Sep. 5, 2013) was −13.0%.
